Experimental data reported in patent US8039668B2, “Naphthalene-based inhibitors of anti-apoptotic proteins” (Burnham Institute for Medical Research, priority 2008, dated 2011).
Like-named read-outs stand apart in the source and are kept apart here.

Assays:
BCL-XL [1] = biological target: T1, BCL-XL (Homo sapiens, UniProt Q07817); experiment: 1D 1H-NMR binding assay; parameters: key to 1D-^1H NMR: +++, Very Active; ++, Active; +, Mild; −, Weak; settings: for 1D ^1H-NMR Binding Assay (BCL-XL): Table 9; for 1D-^1H NMR: BCL-XL 25 μM, compound 200 μM
Description: By observing the aliphatic region of the spectra, binding could be readily detected due to chemical shift changes in active site methyl groups of Ile, Leu, Thr, Val or Ala (region between −0.8 and 0.3 ppm). All experiments were performed with a 600 MHz spectrometer Bruker Avance 600 equipped with four rf channels and z-axis pulse-field gradients.
Target sequence in this assay (Q07817 whole entry): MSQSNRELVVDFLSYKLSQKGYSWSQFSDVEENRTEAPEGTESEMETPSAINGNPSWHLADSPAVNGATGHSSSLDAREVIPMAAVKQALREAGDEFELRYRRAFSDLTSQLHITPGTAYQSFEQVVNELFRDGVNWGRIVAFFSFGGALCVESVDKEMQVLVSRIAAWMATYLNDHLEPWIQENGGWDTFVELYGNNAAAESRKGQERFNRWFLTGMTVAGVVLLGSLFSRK

[2] = system: human lymphoma RS11846 cell line; experiment: Apoptosis, Annexin V-FITC and propidium iodide assay; assay type: cell-based; settings: Homo sapiens
Description: The apoptotic activity of the compounds against RS11846 cells was assessed by staining with Annexin V- and propidium iodide (PI). Lymphoma cell line, RS11846, was cultured in RPMI 1640 medium (Mediatech Inc., Herndon, Va. 20171) containing 10% fetal bovine serum (Mediatech Inc., Herndon, Va. 20171) and Penicillin/Streptomycin (Mediatech Inc., Herndon, Va. 20171). […] The percentage of viable cells was determined by FITC-Annexin V- and propidium iodide (PI)-labeling, using an Apoptosis Detection kit (BioVision Inc.), and analyzing stained cells by flow cytometry (FACSort; Bectin-Dickinson, Inc.; Mountain View, Calif.). Cells that were annexin-V-negative and PI-negative were considered viable.

[3] = PAMPA cell membrane permeability; assay type: in vitro ADME; settings: Table 11; Low/Medium, not defined
Text: PAMPA is parallel artificial membrane permeation assay.

Bcl-2 = Bcl-2 (Homo sapiens, UniProt P10415); experiment: Competitive fluorescence polarization assay (FPA), Bim BH3 peptide; assay type: binding
Mcl-1 = Mcl-1 (Homo sapiens, UniProt Q07820); experiment: as above; assay type: binding
Bfl-1 = biological target: T2, Bfl-1 (Homo sapiens, UniProt Q16548); experiment: Competitive fluorescence polarization assay (FPA); assay type: binding
T2 sequence (Q16548 1-175): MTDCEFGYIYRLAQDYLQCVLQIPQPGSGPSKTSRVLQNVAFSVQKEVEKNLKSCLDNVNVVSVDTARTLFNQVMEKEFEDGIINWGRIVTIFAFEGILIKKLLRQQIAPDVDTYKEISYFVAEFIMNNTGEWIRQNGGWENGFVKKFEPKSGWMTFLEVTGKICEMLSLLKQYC

BCL-XL [4] = biological target: T1, BCL-XL; experiment: Isothermal titration calorimetry (ITC); assay type: binding
Description: Titrations were performed using a VP-ITC or ITC200 calorimeter from Microcal (Northampton, Mass.). BCL-XL was used at concentrations between 25 and 100 μM in 20 mM sodium phosphate buffer (pH 7.4) and 5-10% DMSO. Titrants were used at concentrations 10-15 fold of that of the protein in the same buffer. Titrations were carried out at 25° C. Data were analyzed using Microcal Origin software provided by the ITC manufacturer (Microcal, Northampton, Mass.).
Target sequence in this assay (Q07817 whole entry): as the sequence (Q07817 whole entry) above

H1299 cell line = experiment: Cell viability, ATP-LITE assay; assay type: cell-based, human; settings: Homo sapiens
Method in brief: (§1)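 Human cancer lines were seeded at 2000 (H460, H1299), 3000 (PC3) or 10,000 (RS11846) cells/well in F12 or RPMI1640 with 5% FBS. Compounds were added in 0.1% DMSO 24 h after seeding. Viability was read by ATP-LITE luminescence after 72 h and normalized to DMSO controls.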

PC3ML cells = experiment: Cell viability, ATP-LITE assay; assay type: cell-based, human; settings: Homo sapiens, PC3-ML
Method in brief: as §1

[5] = system: H460 human lung cell line; experiment: Cell viability, ATP-LITE assay; assay type: cell-based; settings: Homo sapiens
Method in brief: as §1

[6] = system: BP3 human B-cell lymphoma cell line; experiment: Annexin V-FITC and propidium iodide assay; assay type: cell-based; settings: Homo sapiens, B-cell, read-out: EC50 BP3
[7] = system: Bax/Bak double knockout mouse embryonic fibroblast cells (MEF/DKO); experiment: FITC-Annexin V/PI cytotoxicity in Bax/Bak double knockout cells; assay type: cell-based; settings: 10 μM
Description: MEF/WT and MEF/DKO cells were seeded in 24-well plate at a seeding density of half a million per well (in 1 ml of DMEM medium supplemented by 10% FCS). […] On the following day, floating cells were pooled with adherent cells harvested after brief incubation with 0.25% Trypsin/EDTA solution (Gibco/In-Vitrogen Inc.). Cells were centrifuged and supernatant was discarded, and cell pellet was re-suspended with 0.2 ml of Annexin-V binding buffer, followed by addition of 1 μl Annexin-FITC and 1 μl PI (propidium iodide). The percentage of viable cells was determined by a 3-color FACSort instrument and data analyzed by Flow-Jo program, scoring Annexin V-negative, PI-negative as viable cells.

Plasma stability = assay type: in vitro ADME, rat; settings: for Plasma stability (T = 1 h): Table 6, rat plasma
Description: Plasma Stability. A 20 μL aliquot of a 10 mM solution in DMSO of the test compound was added to 2.0 mL of heparinized rat plasma (Lampire, P1-150N) to obtain a 100 μM final solution. The mixture was incubated for 1 h at 37.5° C. Aliquots of 100 μL were taken (0, 30 min, 1 h) and diluted with 200 μL of MeOH containing internal standard.

[8] = Liver microsomal stability; assay type: in vitro ADME, rat; settings: for Microsomal Stability (T = 1 h): Table 6, rat liver microsomes
Text: Liver Microsomal Stability.

B6Bcl-2 transgenic mice = settings: for Tox: Bcl-2 transgenic mouse, single ip injection 72 μmol/kg
Description: Transgenic mice expressing BCL-2 have been described as the B6 line. The BCL-2 transgene res a minigene version of a t(14;18) translocation in which the human BCL-2 gene is fused with the immunoglobulin heavy-chain (IgH) locus and associated IgH enhancer. The transgene was propagated on the Balb/c background.
After 24 hours, B6BCL2 mice were sacrificed by intraperitoneal injection of lethal dose of Avertin. Spleen was removed and weighed. […] Spleen tissue was fixed in z-FIX for 3 days and rinsed in PBS, and saved for histological analysis of spleen (H&E staining and TUNEL assay).

BCL-XL [9] = biological target: T1, BCL-XL; experiment: Competitive fluorescence polarization assay (FPA), Bak BH3 peptide; assay type: binding; parameters: 100 nM GST-BCL-XL ΔTM protein
Description: For competitive binding assays, 100 nM GST-BCL-XL ΔTM protein was preincubated with the tested compound at varying concentrations in 47.5 μL PBS (pH=7.4) in 96-well black plates at room temperature for 10 min, then 2.5 μL of 100 nM FITC-labeled Bak BH3 peptide was added to produce a final volume of 50 μL. The wild-type and mutant Bak BH3 peptides were included in each assay plate as positive and negative controls, respectively. […] IC50 was determined by fitting the experimental data to a sigmoidal dose-response nonlinear regression model (SigmaPlot 10.0.1, Systat Software, Inc., San Jose, Calif., USA). Data reported are mean of three independent experiments±standard error (SE). […] Fluorescence polarization was measured after 10 min.
Target sequence in this assay (Q07817 1-209 limits assumed): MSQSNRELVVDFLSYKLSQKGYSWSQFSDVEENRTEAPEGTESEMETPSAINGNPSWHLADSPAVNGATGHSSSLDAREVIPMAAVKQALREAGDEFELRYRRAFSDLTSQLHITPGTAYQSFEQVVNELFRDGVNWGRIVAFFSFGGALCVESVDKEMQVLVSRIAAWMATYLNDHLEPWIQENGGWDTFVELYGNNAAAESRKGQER

RS11846 cell line = experiment: Cell viability, ATP-LITE assay; assay type: cell-based; settings: Homo sapiens, Table 9; read-out: RS11846 EC50 (ATP-LITE assay)
Method in brief: as §1

[10] = NCI-H1299, Table 9, read-out: H1299 EC50
[11] = NCI-H460, Table 9, read-out: H460 EC50
[12] = Table 9, read-out: RS11846 EC50 (Annexin V- and propidium iodide assay)
[13] = Table 9, read-out: FPA IC50 (BCL-XL)

Sequence of Mcl-1 (Q07820 whole entry): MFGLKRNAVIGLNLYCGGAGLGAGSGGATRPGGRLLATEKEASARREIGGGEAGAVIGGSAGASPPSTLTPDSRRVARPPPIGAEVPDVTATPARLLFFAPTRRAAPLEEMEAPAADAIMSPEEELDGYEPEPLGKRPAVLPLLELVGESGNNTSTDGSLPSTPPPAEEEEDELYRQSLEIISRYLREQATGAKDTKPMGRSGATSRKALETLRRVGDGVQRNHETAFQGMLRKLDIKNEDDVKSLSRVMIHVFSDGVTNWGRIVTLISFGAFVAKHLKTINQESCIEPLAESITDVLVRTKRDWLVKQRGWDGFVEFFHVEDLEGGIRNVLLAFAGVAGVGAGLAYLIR
Sequence of Bcl-2 (P10415 whole entry): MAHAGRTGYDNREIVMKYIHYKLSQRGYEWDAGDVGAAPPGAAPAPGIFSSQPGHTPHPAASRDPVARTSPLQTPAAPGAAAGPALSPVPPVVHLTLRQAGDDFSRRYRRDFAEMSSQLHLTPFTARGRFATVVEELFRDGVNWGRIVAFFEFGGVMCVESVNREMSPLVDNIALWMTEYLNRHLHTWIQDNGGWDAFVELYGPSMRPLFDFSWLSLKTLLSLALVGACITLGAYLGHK

Row | Compound | 1D ^1H-NMR Binding Assay (BCL-XL) (BCL-XL [1]) | Cell Permeability [3] | IC50 (Bcl-2) [nM] | IC50 (Mcl-1) [nM] | IC50 (Bfl-1) [µM] | Kd (BCL-XL [4]) [nM] | MEF/DKO cells killed [7] | Plasma stability (T = 1 h) (Plasma stability) [%] | Microsomal Stability (T = 1 h) [8] [%] | Tox (B6Bcl-2 transgenic mice) | IC50 (BCL-XL [9]; read-out: IC50 FPA Bcl-XL) [nM] | EC50 (H1299 cell line; [10]) [µM] | EC50 (PC3ML cells; Table 9, read-out: PC3ML EC50) [µM] | EC50 [5, 11] [nM] | EC50 (RS11846 cell line) [nM] | EC50 [2, 12] [µM] | IC50 (BCL-XL [9]; [13]) [nM] | further results
1 | Cc1cc2c(C(=O)C(C)(C)C)c(O)c(O)cc2c(O)c1-c1c(C)cc2c(C(=O)C(C)(C)C)c(O)c(O)cc2c1O [Compound XVIII, 1,1′-(1,1′,6,6′,7,7′-hexahydroxy-3,3′-dimethyl-2,2′-binaphthyl-5,5′-diyl)bis(2,2-dimethylpropan-1-one)] | ++ | Medium | – | – | – | – | – | – | – | – | – | – | – | – | – | – | – | EC50 ([2]; read-out: RS11846 EC50 (Annexin V- and propidium iodide assay), Table 9): 14.7 µM
2 | Cc1cc2c(CCc3ccccc3)c(O)c(O)cc2c(O)c1-c1c(C)cc2c(CCc3ccccc3)c(O)c(O)cc2c1O [Compound 12e, 3,3′-dimethyl-5,5′-diphenethyl-2,2′-binaphthyl-1,1′,6,6′,7,7′-hexaol] | – | – | 480 | 830 | 5 | 410 | 20-35% | 80 | 89 | 0 | 3500 | – | – | – | – | – | – | 1D-^1H NMR (BCL-XL [1]; Table 4): +; EC50 (H1299 cell line; NCI-H1299, read-out: EC50 H1299): 0.58 µM; EC50 (PC3ML cells; read-out: EC50 PC3ML, ATP-LITE assay): 2.4 µM; EC50 ([5]; NCI-H460, read-out: EC50 H460): 920 nM; EC50 ([2]; read-out: EC50 RS11846, Annexin V-FITC and propidium iodide assay): 9.8 µM; EC50 [6]: 4140 nM; signs of toxicity (B6Bcl-2 transgenic mice; 72 μmol/kg and even 120 μmol/kg): no significant signs of toxicity
3 | Cc1cc2c(C(=O)NCC3CCCCC3)c(O)c(O)cc2c(O)c1-c1c(C)cc2c(C(=O)NCC3CCCCC3)c(O)c(O)cc2c1O [Compound 8m, N^5,N^5′-bis(cyclohexylmethyl)-1,1′,6,6′,7,7′-hexahydroxy-3,3′-dimethyl-2,2′-binaphthyl-5,5′-dicarboxamide] | – | – | 710 | 780 | 2 | 850 | 20-35% | 89 | 90 | 4+ | 1100 | – | – | – | – | – | – | 1D-^1H NMR (BCL-XL [1]; Table 3): +++; EC50 (H1299 cell line; NCI-H1299, heading: EC50 H1299, Table 3, ATP-LITE assay, read-out: EC50 H1299): 4.8 µM; EC50 (PC3ML cells; Table 3, ATP-LITE assay, heading: EC50 PC3ML, read-out: EC50 PC3ML): 3.7 µM; EC50 ([5]; NCI-H460, Table 3, ATP-LITE assay, read-out: EC50 H460): 410 nM; EC50 ([2]; Table 3, Annexin V-FITC and propidium iodide assay, heading: EC50 RS11846, read-out: EC50 RS11846): 4.9 µM; EC50 ([6]; Table 3, Annexin V-FITC and propidium iodide assay): 900 nM; degraded after 1 hour incubation in rat plasma (Plasma stability; 1 hour): 11%; degraded after 1 hour incubation in rat microsomal preparations ([8]; 1 hour): 10%
4 | Cc1cc2c(C(=O)c3nc4ccccc4s3)c(O)c(O)cc2c(O)c1-c1c(C)cc2c(C(=O)c3nc4ccccc4s3)c(O)c(O)cc2c1O [Compound XVII, (1,1′,6,6′,7,7′-hexahydroxy-3,3′-dimethyl-2,2′-binaphthyl-5,5′-diyl)bis(benzo[d]thiazol-2-ylmethanone)] | + | Medium | – | – | – | – | – | – | – | – | – | 5.8 | 5.2 | 1400 | 2900 | 7 | 140 to 450 | –
5 | Cc1cc2c(C(=O)C3CCCC3)c(O)c(O)cc2c(O)c1-c1c(C)cc2c(C(=O)C3CCCC3)c(O)c(O)cc2c1O [Compound VI, (1,1′,6,6′,7,7′-hexahydroxy-3,3′-dimethyl-2,2′-binaphthyl-5,5′-diyl)bis(cyclopentylmethanone)] | + | Low | – | – | – | – | – | – | – | – | – | 3.1 | 3.4 | 1100 | 4000 | 4.5 | 450 | –
6 | Cc1cc2c(C(=O)c3cccc4ccccc34)c(O)c(O)cc2c(O)c1-c1c(C)cc2c(C(=O)c3cccc4ccccc34)c(O)c(O)cc2c1O [Compound VIII, (1,1′,6,6′,7,7′-hexahydroxy-3,3′-dimethyl-2,2′-binaphthyl-5,5′-diyl)bis(naphthalen-1-ylmethanone)] | + | Low | – | – | – | – | – | – | – | – | – | 2.4 | 3 | 590 | 1800 | 3 to 5.5 | 160 | –
